Experimental findings from patent publication US11905259B1, “2-(benzo[d]oxazol-2-yl)-N′-(4-(dimethylamino)benzoyloxy)acetimidamide as an antimicrobial compound” (KING FAISAL UNIVERSITY, priority 2023, dated 2024) are described below.

The subject of data set [1] is Aspergillus flavus. Nature of the data set: agar plate disc-diffusion, antifungal activity. In kind it is cell-based. The procedure: (§1) The agar plate disc-diffusion method was applied. Sterilized filter papers (6 mm in diameter) were wetted with 10 μL of a solution of 2-(benzo[d]oxazol-2-yl)-N′-(4-(dimethylamino)benzoyloxy)acetimidamide (3) to be tested, containing 10 mg/mL in DMSO, and the discs were allowed to air dry. The discs were then placed onto the surface of agar plates (nutrient agar for bacteria and Sabouraud's dextrose agar for fungi) seeded with the test organism. Each plate contained 15 mL of the agar medium, previously seeded with 0.2 mL of the broth culture of each organism pregrown for 18 hours. The plates were incubated at 37° C. for 48 hours, and 72 hours for fungi. The inhibition zones was measured in mm. Discs impregnated with DMSO were used as a control, and its inhibition zone was subtracted from the tested compound actual inhibition zone.
(A growth-free zone around the sample is the usual read-out of agar diffusion tests.)

The subject of data set [2] is Chrysosporium keratinophilum. Nature of the data set: agar plate disc-diffusion, antifungal activity. In kind it is cell-based. The procedure:
as §1, with “Sterilized filter papers (6 mm in diameter) were wetted with 10 μL of a solution of 2-(benzo[d]oxazol-2-yl)-N′-(4-(dimethylamino)benzoyloxy)acetimidamide (3) to be tested, containing 10 mg/mL in DMSO, and the discs were allowed to air dry.” left out

For data set [3], the system named is Escherichia coli. Nature of the data set: agar plate disc-diffusion, antibacterial activity. It counts as cell-based. The procedure:
as §1, with “Sterilized filter papers (6 mm in diameter) were wetted with 10 μL of a solution of 2-(benzo[d]oxazol-2-yl)-N′-(4-(dimethylamino)benzoyloxy)acetimidamide (3) to be tested, containing 10 mg/mL in DMSO, and the discs were allowed to air dry.” left out

Data set [4] relates to Pseudomonas aeruginosa. Nature of the data set: agar plate disc-diffusion, antibacterial activity. In kind it is cell-based. The procedure: as §1, with “Sterilized filter papers (6 mm in diameter) were wetted with 10 μL of a solution of 2-(benzo[d]oxazol-2-yl)-N′-(4-(dimethylamino)benzoyloxy)acetimidamide (3) to be tested, containing 10 mg/mL in DMSO, and the discs were allowed to air dry.” left out

The test system of data set [5] is Bacillus cereus. Nature of the data set: agar plate disc-diffusion, antibacterial activity. It counts as cell-based. The procedure: as §1, with “Sterilized filter papers (6 mm in diameter) were wetted with 10 μL of a solution of 2-(benzo[d]oxazol-2-yl)-N′-(4-(dimethylamino)benzoyloxy)acetimidamide (3) to be tested, containing 10 mg/mL in DMSO, and the discs were allowed to air dry.” left out

Data set [6] has as its system Staphylococcus aureus. Nature of the data set: agar plate disc-diffusion, antibacterial activity. It counts as cell-based. The procedure: as §1, with “Sterilized filter papers (6 mm in diameter) were wetted with 10 μL of a solution of 2-(benzo[d]oxazol-2-yl)-N′-(4-(dimethylamino)benzoyloxy)acetimidamide (3) to be tested, containing 10 mg/mL in DMSO, and the discs were allowed to air dry.” left out

Data set [7] has as its system different microbes. Nature of the data set: antimicrobial screening, overall statement. It counts as cell-based. The conditions noted are these: against different microbes (bacteria and fungi screened). The procedure:
as §1

Where [8] appears, read: A = concentration of comp. = 10,000 uL.
Where [9] appears, read: B = concentration of comp. = 30,000 uL.
The mark [10] stands for this setting: C = concentration of comp. = 50,000 uL.

As for `CN(C)c1ccc(C(=O)O/N=C(\N)Cc2nc3ccccc3o2)cc1` [Compound 3, 2-(benzo[d]oxazol-2-yl)-N′-(4-(dimethylamino)benzoyloxy)acetimidamide], the melting point (commonly the temperature of the solid-liquid transition) lay in the range of 165 to 166 °C. In addition, the inhibition zone in data set [1] (setting [8]) is on record as 21 mm. The inhibition zone in data set [1] (setting [9]) is reported as 25 mm. This compound yielded an inhibition zone in data set [1] (setting [10]) of 37 mm. Moreover, the inhibition zone in data set [2] (setting [8]) came out at 25 mm. Besides, the inhibition zone in data set [2] (setting [9]) is 29 mm. In data set [2] (setting [10]), the inhibition zone is recorded as 46 mm. Besides, the inhibition zone in data set [3] (setting [8]) is on record as 27 mm. In addition, the inhibition zone in data set [3] (setting [9]) was found to be 34 mm. The compound also displayed an inhibition zone in data set [3] (setting [10]) of 49 mm. Also, in data set [4] (setting [8]), the inhibition zone is reported as 25 mm. Also, the inhibition zone in data set [4] (setting [9]) is recorded as 28 mm. Besides, the inhibition zone in data set [4] (C =) amounted to 39 mm. This compound also returned an inhibition zone in data set [5] (setting [8]) of 26 mm. Besides, the inhibition zone in data set [5] (setting [9]) was determined as 28 mm. Also, the inhibition zone in data set [5] (setting [10]) was 41 mm. For the same compound, the inhibition zone in data set [6] (setting [8]) is on record as 17 mm. The inhibition zone in data set [6] (setting [9]) was 22 mm. The inhibition zone in data set [6] (C = concentration of comp.) is recorded as 34 mm. Further, the antimicrobial activities entry in data set [7] is recorded as “excellent”.

For the compound `O=C(O)c1cn(C2CC2)c2cc(N3CCNCC3)c(F)cc2c1=O` [Cip., ciprofloxacin, reference compound], the inhibition zone turned out to be 28 mm in data set [1] (setting [8]); 31 mm in data set [1] (setting [9]); 43 mm in data set [1] (setting [10]); 30 mm in data set [2] (setting [8]); 33 mm in data set [2] (setting [9]); 55 mm in data set [2] (setting [10]). Moreover, the inhibition zone is reported as 30 mm in data set [3] (setting [8]); 39 mm in data set [3] (setting [9]); 60 mm in data set [3] (setting [10]); 29 mm in data set [4] (setting [8]); 30 mm in data set [4] (setting [9]); 53 mm in data set [4] (C =). Besides, the inhibition zone in data set [5] (setting [8]) was determined as 29 mm; in data set [5] (setting [9]) it was 31 mm; in data set [5] (setting [10]), 42 mm; in data set [6] (setting [8]), 43 mm; in data set [6] (setting [9]), 44 mm; in data set [6] (C = concentration of comp.) it was 53 mm.
